{
  "source": "patent US7067694B2",
  "about": "“Halogen-substituted amino dicarboxylic acid derivatives as medicaments for treating cardiovascular diseases” (Bayer Aktiengesellschaft, priority 2001, dated 2006)",
  "data": [
    {"tested_on": "arteria saphena rings", "experiment": "Vasorelaxant effect in vitro (phenylephrine-contracted rabbit arteria saphena rings)", "format": "cell-based, Rabbits", "settings": "Oryctolagus cuniculus, contraction by phenylephrine, 37° C., 0.1% DMSO, read-out: IC50, concentration necessary to reduce the height of the contraction control value by 50%", "procedure": "Vasorelaxant Effect in vitro\nRabbits are anesthetized or killed by intravenous injection of thiopental sodium (about 50 mg/kg) and exsanguinated. The arteria saphena is removed and divided into rings 3 mm wide. The individual rings are in each case mounted on a pair of hooks of triangular shape, open at the ends and made of special wire (Remanium®) having a diameter of 0.3 mm. Under pretension, each ring is introduced into a 5 ml organ bath containing carbogen-gassed Krebs-Henseleit solution at 37° C. with the following composition (mM): NaCl: […]; KCl: 4.8; CaCl2×2H2O: 1; MgSO4×7H2O: 1.4; KH2PO4: 1.2; NaHCO3: 25; glucose: 10; bovine serum albumin: 0.001%. The force of contraction is detected with Statham UC2 cells, amplified and digitized via A/D converters (DAS-1802 HC, Keithley Instruments, Munich) and recorded in parallel on chart recorders. Contractions are generated by adding phenylephrine.\nAfter several (generally 4) control cycles, the substance to be investigated is added in each further run in increasing dosage, and the height of the contraction reached under the influence of the test substance is compared with the height of the contraction reached in the last preceding run. The concentration necessary to reduce the height of the control value by 50% (IC50) is calculated from this. The standard application volume is 5 μl. The DMSO content in the bath solution corresponds to 0.1%.", "units": {"IC50": "nM"}, "values": [
      {"molecule": "O=C(O)CCCCN(CCc1ccc(F)cc1OCc1ccc(C2CCCCC2)cc1)Cc1ccc(C(=O)O)cc1", "note": "[Example 1, 4-{[(4-carboxybutyl)(2-{2-[(4-cyclohexylbenzyl)oxy]-4-fluorophenyl}ethyl)amino]methyl}benzoic acid]", "IC50": 1.1},
      {"molecule": "O=C(O)CCCCN(CCc1cc(F)ccc1OCc1ccc(C2CCCCC2)cc1)Cc1ccc(C(=O)O)cc1", "note": "[Example 2]", "IC50": 1.5},
      {"molecule": "O=C(O)CCCCN(CCc1cc(Cl)ccc1OCc1ccc(-c2ccc(C(F)(F)F)cc2)cc1)Cc1ccc(C(=O)O)cc1", "note": "[Example 3]", "IC50": 1},
      {"molecule": "O=C(O)CCCCN(CCc1cc(Cl)ccc1OCc1ccc(-c2ccc(Cl)cc2)cc1)Cc1ccc(C(=O)O)cc1", "note": "[Example 6]", "IC50": 8.1},
      {"molecule": "COc1ccc(-c2ccc(COc3ccc(Cl)cc3CCN(CCCCC(=O)O)Cc3ccc(C(=O)O)cc3)c(Cl)c2)cc1", "note": "[Example 9]", "IC50": 8.3}
    ]},
    {"tested_on": "not given", "experiment": "not given", "settings": "not given", "units": {"melting point": "°C"}, "values": [
      {"molecule": "O=C(O)CCCCN(CCc1ccc(F)cc1OCc1ccc(C2CCCCC2)cc1)Cc1ccc(C(=O)O)cc1", "note": "[Example 1, 4-{[(4-carboxybutyl)(2-{2-[(4-cyclohexylbenzyl)oxy]-4-fluorophenyl}ethyl)amino]methyl}benzoic acid]", "melting point": "> 250"}
    ]}
  ]
}
